In series [1] the test system is γ-secretase (APP processing), SH-SY5Y cells expressing amyloid β protein (SP4CT cells). As to the kind of experiment: APP processing, secreted Aβ40 and Aβ42 from SH-SY5Y (SP4CT) cells, AlphaLisa. The following applies: cell based assay. The method, then: APP Processing (Assay Quantitates Secreted Aβ Analytes from Cell Lines):
The effect of compounds on the abundance of Aβ40 and Aβ42 peptides generated from SH-SY5Y cells expressing amyloid β protein (SP4CT cells) was determined by an AlphaLisa™ assay. Analogous to an ELISA assay, generation of signal in this AlphaLisa™ assay requires “donor” and “acceptor” beads to be brought in close proximity by specific antibody recognition of either Aβ40 or Aβ42 peptides. The assay was accomplished by removing media from compound-treated SP4CT cells to two different microplates, followed by the addition of donor beads conjugated with streptavidin binding a biotinylated anti-amyloid β monocolonal antibody (clone 408). Acceptor beads directly conjugated with anti-Aβ40 monoclonal antibody (G210) were added to one microplate and anti-Aβ42 monoclonal antibody (12F4) acceptor beads were added to the other. Abundance of Aβ40 and Aβ42 was directly proportional to the luminescent signal generated following excitation of donor beads by laser light.
In general terms: Bead proximity is the source of the signal in Alpha formats.

For series [2], the system named is gamma secretase-dependent cleavage of the Notch protein, HeLa cells. As to the kind of experiment: Notch processing, split-luciferase assay in HeLa cells. Type of series: cell-based. As to conditions: ratio HeLa Notch to SY5Y Aβ40. From the text: (§1) Notch Processing: (Assay Quantitates Notch Intracellular Domain Release in Cell Lines):
(§2) A “split-luciferase” assay is used to measure inhibition of gamma secretase-dependent cleavage of the Notch protein. In this assay, HeLa cells were made to express a Notch protein lacking its extracellular domain (NotchΔE) fused to an N-terminal fragment of luciferase. The same cells also expressed a C-terminal fragment of luciferase fused to the immunoglobulin J kappa recombination signal sequence binding protein (RBP). Upon NotchΔE cleavage by gamma secretase, a Notch intracellular domain (NICD)-N terminal luciferase protein is generated which translocates to the nucleus and binds the RBP-C terminal luciferase fusion, bringing two independently nonfunctional halves of luciferase together to form a functional luciferase enzyme. The activity of luciferase in these cells is directly proportional to the amount of gamma secretase-cleaved Notch. Luciferase activity is determined by the standard techniques of luciferin addition to lysed cells and measurement of total luminescence.

For series [3], the system named is T1, gamma secretase-dependent cleavage of the Notch protein, HeLa cells.
T1 construct: HeLa Notch; other: cell based assay, HeLa cells, NotchΔE split-luciferase
The description is as above. The series is classed as cell-based. As to conditions: cell based assay, HeLa cells, NotchΔE split-luciferase.
Source text: as §1, §2

Series [4] is described as follows: Pharmacokinetics in Sprague Dawley rats. As to conditions: Rat; for AUC (Norm)(0-x) / clearance / half-life: 0.25 mg/kg; for clearance / half-life / bioavailability: Sprague Dawley, plasma; for clearance: intravenous; for bioavailability: 0.25 mg/kg IV or PO. Type of series: in vivo. On the procedure: (§3) Pharmacokinetic parameters were determined in Sprague Dawley rats, Beagle dogs and Rhesus monkeys by dosing the compounds intravenously (IV) or orally (PO). A dose of 0.25 mg/kg was administered either IV or PO to each subject with a dosing solution of 0.25 mg/ml in a 30:70 v/v mixture of PEG400:40% Captisol®. Plasma samples were collected at 5 min. (IV only), 15 min., 30 min., 1 h, 2 h, 4 h, 6 h, 8 h, 24 h, 48 h, 72 h, 96 h, 120 h, 144 h, and 168 h. Samples were analyzed by LC-MS/MS (API5000™) to determine the concentration in plasma. Briefly, 50 μL plasma was precipitated with 200 μL acetonitrile containing an appropriate internal standard. Samples were filtered, 500 μL of water was added to each sample and 10 μL of this was injected on a C18 column (2.0 mm×30 mm, 3 μm particle size) and eluted using a gradient LC method with water containing 0.1% formic acid as the aqueous mobile phase, and acetonitrile containing 0.1% formic acid as the organic phase. Electrospray ionization with multiple reaction monitoring was used for MS/MS detection. Plasma concentration of the compounds was determined using a standard curve that was prepared similar to the samples in the respective matrix. Non-compartmental analysis was performed using Watson 7.2 to generate the PK parameters.

Series [5] can be described thus: Pharmacokinetics in Beagle dogs. The series is classed as in vivo. As to conditions: Dog; for clearance / half-life / bioavailability: Beagle, plasma; for clearance: intravenous; for clearance / half-life / AUC (Norm)(0-x): 0.25 mg/kg; for bioavailability: 0.25 mg/kg IV or PO. The method, then:
as §3

The target in series [6] is semi-purified γ-secretase. Nature of the series: In vitro APP processing (C100Flag substrate, semi-purified γ-secretase, MESO Scale ELISA), mouse brain membranes. The following applies: in vitro assay. Type of series: biochemical. The method, then: (§4) In Vitro APP Processing (Assay Quatitates Aβ Analytes Generated from a Recombinant APPC100Flag Substrate Incubated with Semi-Purified γ-Secretase)
(§5) The effect of compounds on the abundance of Aβ40 and Aβ42 peptides generated from exogenous C100Flag substrate by semi-purified γ-secretase was determined by MESO Scale ELISA. Generation of signal in this MESO Scale assay requires an anti-amyloid monoclonal antibody (clone 408) conjugated with streptavidin to bind to a biotin-coated plate. Specific [Ru(bpy)3]2+-labeled monoclonal antibodies for either Aβ40 (G210) or Aβ42 (12F4) subsequently generate an electrochemiluminescence signal upon electrochemical stimulation. The assay was accomplished by incubating compound, C100Flag substrate and CHAPSO-solubilized P2 membranes from HeLa cells or brains of mouse, rat, or dog. The reaction was then transferred to two different biotinylated microplates for detection of either Aβ40 or Aβ42.
A general note: In an ELISA, binding on a coated surface is turned into a signal by an enzyme label.

The target of series [7] is semi-purified γ-secretase. Nature of the series: In vitro APP processing (C100Flag substrate, semi-purified γ-secretase, MESO Scale ELISA), rat brain membranes. The following applies: in vitro assay. Type of series: biochemical. The method, then: as §4, §5
Series [8] has as its target semi-purified γ-secretase. As to the kind of experiment: In vitro APP processing (C100Flag substrate, semi-purified γ-secretase, MESO Scale ELISA), dog brain membranes. The series is classed as biochemical. As to conditions: in vitro assay. On the procedure:
as §4, §5

Series [9] is described as follows: Pharmacokinetics in Rhesus monkeys. The series is classed as in vivo. As to conditions: for AUC (Norm)(0-x) / half-life / clearance: 0.25 mg/kg; for half-life / bioavailability / clearance: rhesus monkey, plasma; for bioavailability: 0.25 mg/kg IV or PO; for clearance: intravenous. On the procedure: as §3
A short description of series [10]: Example A: PK profile in Rhesus monkeys, 30 mg/kg PO single dose. As to conditions: rhesus monkey, plasma. Type of series: in vivo. From the text: (§6) Peak lowering of ˜46% was observed 24 hrs after each dose. […] Terminal phase pharmacokinetic characteristics of Example 1 in Rhesus monkey provide continuous inhibition over the course of one week achieving both an average as well as minimum reduction of CSF Aβ40 of >25%.

For a further series, the system named is CSF Aβ40. Nature of the series: Example A: CSF Aβ40 reduction and tolerability in Rhesus monkeys, 30 mg/kg PO, one week. Type of series: in vivo.
Source text: as §6

Another series concerns CSF Aβ40 and Aβ42. Nature of the series: Example B: CSF Aβ40 and Aβ42 levels and tolerability in rhesus monkeys, once-weekly oral 30 mpk. Type of series: in vivo. The following applies: oral once-weekly 30 mpk. On the procedure: Example 1 was administered orally to rhesus monkeys once-weekly at a dose of 30 mpk and levels of Aβ40 and Aβ42 in the cerebrospinal fluid (CSF) were monitored.

[11] abbreviates: Aβ40, read-out: Tissue autonomous Aβ40, Mouse.
[12] abbreviates: Aβ40, read-out: Tissue autonomous Aβ40, Rat.
The mark [13] stands for this setting: Aβ40, read-out: Tissue autonomous Aβ40, Dog.

Structures are written as SMILES. Read-outs that look alike come from different tables or passages of the source.

The term clearance denotes a measure of how efficiently the substance is removed, as volume per time. Higher therefore signals efficient removal. With `O=S(=O)(N[C@H]1CC[C@@](c2cc(F)ccc2F)(S(=O)(=O)c2ccc(C(F)(F)F)cc2)CC1)C(F)(F)F` [Example 62 from U.S. Pat. No. 6,890,956], the IC50 in [1] (Aβ40, read-out: SY5Y Aβ40) turned out to be 0.99 nM; in [1] (Aβ42, read-out: SY5Y Aβ42), 0.99 nM; in series [3], 154 nM. Further, the Notch/Aβ40 in [2] stood at 156. Besides, the “AUC (Norm)(0-x)” value in series [4] was determined as 6.0 µM·kg·h/mg; in series [5], 49.5 µM·kg·h/mg. Besides, the clearance is 5.9 mL/min/kg in series [4] and 0.383 mL/min/kg in series [5]. The half-life in series [4] is 101 h; in [5], 254 h. The figures for the bioavailability in series [4] and in [5] were 116% and 55%, respectively.

Take `O=S(=O)(N[C@H]1CC[C@@](c2cc(F)ccc2F)(S(=O)(=O)c2ccc(Cl)cc2)CC1)C(F)(F)F` [MRK-560]: the IC50 is 0.8 nM in [6] (setting [11]); 0.4 nM in [6] (Aβ42, read-out: Tissue autonomous Aβ42, Mouse); 1 nM in series [7] (setting [12]); 0.4 nM in series [7] (Aβ42, read-out: Tissue autonomous Aβ42, Rat); 5.2 nM in series [8] (setting [13]); 1.3 nM in series [8] (Aβ42, read-out: Tissue autonomous Aβ42, Dog). Also, the IC50 in series [1] (Aβ40, read-out: SY5Y Aβ40) worked out at 0.72 nM; in series [1] (Aβ42, read-out: SY5Y Aβ42), 0.51 nM; in [3], 112 nM. In series [2], the Notch/Aβ40 was 155. In addition, the results for the clearance in series [4], in series [5] and in series [9] were 2.2 mL/min/kg, 4.7 mL/min/kg and 0.8 mL/min/kg, respectively. The values for the half-life in [4], in [5] and in [9] were 26 h, 18 h and 12 h, respectively. The bioavailability in [4] was 67%; in [5], 14%; in series [9] it was 23%. For the same compound, the figures for the “AUC (Norm)(0-x)” value in series [5] and in series [9] were 1.1 µM·kg·h/mg and 9.4 µM·kg·h/mg, respectively.

Consider `O=S(=O)(N[C@H]1CC[C@@](c2cc(F)ccc2C(F)(F)F)(S(=O)(=O)c2ccc(C(F)(F)F)cc2)CC1)C(F)(F)F` [Example 1, 1,1,1-trifluoro-N-(4-[5-fluoro-2-(trifluoromethyl)phenyl]-4-{[4-(trifluoromethyl)phenyl]sulfonyl}cyclohexyl)methanesulfonamide], for which the IC50 in series [6] (setting [11]) was determined as 2.4 nM; in [7] (setting [12]), 1.4 nM; in series [8] (setting [13]), 1.5 nM; in [1] (Aβ40, read-out: SY5Y Aβ40), 1.4 ± 0.9 nM; in [3], 518 nM. The Notch/Aβ40 in series [2] is 370. In addition, the “AUC (Norm)(0-x)” value in [4] is 8.7 µM·kg·h/mg; in series [5], 99 µM·kg·h/mg; in series [9] it was 385 µM·kg·h/mg. Also, the clearance in [4] was 3.4 mL/min/kg; in series [5] it was 0.234 mL/min/kg; in series [9], 0.07 mL/min/kg. Moreover, the half-life in series [4] is 126 h; in [5], 713 h; in series [9], 228 h; in [10] (read-out: plasma t ½) it was above 168 h. Also, the values for the bioavailability in series [4], in series [5] and in [9] were 64%, 84% and 84%, respectively. Moreover, in series [10] (read-out: AUC (0-24)), the AUC(0-t) was 138 µM·h. In addition, in the series on CSF Aβ40 (24 hrs (day 1) to 144 hrs (day 6)), the “minimum inhibition (CSF Aβ40)” value was above 25%. Further, the “Peak lowering of CSF Aβ40” value with CSF Aβ40 (24 hrs after each dose) is reported as around 46%. Further, the “average daily CSF Aβ40 reduction relative to baseline” value in the series with CSF Aβ40 (over a one week period (168 hrs; 7 days)) is around 35%. For the same compound, the “tolerability (unformed stool)” value in the series on CSF Aβ40 (over the course of the study) is given as “no unformed stool or other tolerability issues”. Also, the GI toxicity result in the series on CSF Aβ40 and Aβ42 (over a 3 week period) was “no evidence of GI toxicity”. In addition, the “average reduction in CSF Aβ40 levels relative to vehicle-treated controls” value with CSF Aβ40 and Aβ42 (over a 3 week period) is listed as “approximately 40%”. For the same compound, the “average reduction in CSF Aβ42 levels relative to vehicle-treated controls” value in the series with CSF Aβ40 and Aβ42 (over a 3 week period) was “approximately 40%”. Besides, in the series with CSF Aβ40 and Aβ42 (study terminated after 3 weeks), the “side-effects leading to study termination” value is given as “respiratory side-effects unconnected with Notch signaling”.

These data come from patent US8609897B2, “Trifluoromethylsulfonamide gamma secretase inhibitor” (Merck Sharp & Dohme Corp., priority 2009, dated 2013).
